Measurements reported in patent US20230085307A1, “PYRIDAZINONE COMPOUND AND HERBICIDE” (NISSAN CHEMICAL CORPORATION, priority 2019, published 2023).

What was measured:
barnyard grass [1] = test: Test Example 3: herbicidal effect by foliage application, Wagner pot (Table 18, symbol H); format: in vivo, barnyard grass (Echinochloa crus-galli); conditions: 320 g/ha
Outline: (§1)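 Plants were sown in alluvial soil held under 0.1–0.5 cm standing water and grown 14 days in a greenhouse at 25–30 °C. An emulsifiable formulation, water-diluted to the set dose, was then sprayed onto the foliage, and effects were scored three weeks later using previously defined criteria.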

Chinese sprangletop = test: Test Example 3: herbicidal effect by foliage application, Wagner pot (Table 18, symbol D); format: in vivo, chinese sprangletop (Leptochloa chinensis); conditions: 320 g/ha
Outline: as §1

rice flat sedge = test: Test Example 3: herbicidal effect by foliage application, Wagner pot (Table 18, symbol E); format: in vivo, rice flat sedge (Cyperus iria); conditions: 320 g/ha
Outline: as §1

southern crabgrass = test: Test Example 5: herbicidal effect by foliage application, plastic box (Table 20, symbol F); format: in vivo, southern crabgrass (Digitaria ciliaris); conditions: 320 g/ha; for herbicidal effect on F: southern crabgrass (evaluation grade 0-5): foliage application after 14-day growth, evaluated three weeks after application
Outline: (§2)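 Sow seeds spot-wise in sterilized diluvial soil; cover with ~1.5 cm soil. Grow 14 days in greenhouse, 25° C. to 30° C. Spray foliage with emulsion diluted to predetermined amount. Rate effect after 3 weeks.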

green foxtail = test: Test Example 5: herbicidal effect by foliage application, plastic box (Table 20, symbol G); format: in vivo, green foxtail (Setaria viridis); conditions: 320 g/ha; for herbicidal effect on G: green foxtail (evaluation grade 0-5): foliage application after 14-day growth, evaluated three weeks after application
Outline: as §2

barnyard grass [2] = test: Test Example 5: herbicidal effect by foliage application, plastic box (Table 20, symbol H); format: in vivo, barnyard grass (Echinochloa crus-galli); conditions: 320 g/ha; for herbicidal effect on H: barnyard grass (evaluation grade 0-5): foliage application after 14-day growth, evaluated three weeks after application
Outline: as §2

wild oat = test: Test Example 5: herbicidal effect by foliage application, plastic box (Table 20, symbol I); format: in vivo, wild oat (Avena fatua); conditions: 320 g/ha; for herbicidal effect on I: wild oat (evaluation grade 0-5): foliage application after 14-day growth, evaluated three weeks after application
Outline: as §2

blackgrass = test: Test Example 5: herbicidal effect by foliage application, plastic box (Table 20, symbol J); format: in vivo, blackgrass (Alopecurus myosuroides); conditions: 320 g/ha; for herbicidal effect on J: blackgrass (evaluation grade 0-5): foliage application after 14-day growth, evaluated three weeks after application
Outline: as §2

Italian ryegrass = test: Test Example 5: herbicidal effect by foliage application, plastic box (Table 20, symbol K); format: in vivo, Italian ryegrass (Lolium multiflorum); conditions: 320 g/ha; for herbicidal effect on K: Italian ryegrass (evaluation grade 0-5): foliage application after 14-day growth, evaluated three weeks after application
Outline: as §2

windgrass = test: Test Example 5: herbicidal effect by foliage application, plastic box (Table 20, symbol L); format: in vivo, windgrass (Apera spica-venti); conditions: 320 g/ha; for herbicidal effect on L: windgrass (evaluation grade 0-5): foliage application after 14-day growth, evaluated three weeks after application
Outline: as §2

velvetleaf = test: Test Example 5: herbicidal effect by foliage application, plastic box (Table 20, symbol M); format: in vivo, velvetleaf (Abutilon theophrasti); conditions: 320 g/ha; for herbicidal effect on M: velvetleaf (evaluation grade 0-5): foliage application after 14-day growth, evaluated three weeks after application
Outline: as §2

redroot pigweed = test: Test Example 5: herbicidal effect by foliage application, plastic box (Table 20, symbol N); format: in vivo, redroot pigweed (Amaranthus retroflexus); conditions: 320 g/ha; for herbicidal effect on N: redroot pigweed (evaluation grade 0-5): foliage application after 14-day growth, evaluated three weeks after application
Outline: as §2

lambsquarters = test: Test Example 5: herbicidal effect by foliage application, plastic box (Table 20, symbol O); format: in vivo, lambsquarters (Chenopodium album); conditions: 320 g/ha; for herbicidal effect on O: lambsquarters (evaluation grade 0-5): foliage application after 14-day growth, evaluated three weeks after application
Outline: as §2

chickweed = test: Test Example 5: herbicidal effect by foliage application, plastic box (Table 20, symbol P); format: in vivo, common chickweed (Stellaria media); conditions: 320 g/ha; for herbicidal effect on P: chickweed (evaluation grade 0-5): foliage application after 14-day growth, evaluated three weeks after application
Outline: as §2

persian speedwell = test: Test Example 5: herbicidal effect by foliage application, plastic box (Table 20, symbol R); format: in vivo, Persian speedwell (Veronica persica); conditions: 320 g/ha; for herbicidal effect on R: persian speedwell (evaluation grade 0-5): foliage application after 14-day growth, evaluated three weeks after application
Outline: as §2

[3] = foliage application, three weeks after application

Compound	herbicidal effect on barnyard grass (H) (barnyard grass [1])	herbicidal effect on Chinese sprangletop (D) (Chinese sprangletop)	herbicidal effect on rice flat sedge (E) (rice flat sedge)	herbicidal effect on F: southern crabgrass (evaluation grade 0-5) (southern crabgrass)	herbicidal effect on G: green foxtail (evaluation grade 0-5) (green foxtail)	herbicidal effect on H: barnyard grass (evaluation grade 0-5) (barnyard grass [2])	herbicidal effect on I: wild oat (evaluation grade 0-5) (wild oat)	herbicidal effect on J: blackgrass (evaluation grade 0-5) (blackgrass)	herbicidal effect on K: Italian ryegrass (evaluation grade 0-5) (Italian ryegrass)	herbicidal effect on L: windgrass (evaluation grade 0-5) (windgrass)	herbicidal effect on M: velvetleaf (evaluation grade 0-5) (velvetleaf)	herbicidal effect on N: redroot pigweed (evaluation grade 0-5) (redroot pigweed)	herbicidal effect on O: lambsquarters (evaluation grade 0-5) (lambsquarters)	herbicidal effect on P: chickweed (evaluation grade 0-5) (chickweed)	herbicidal effect on R: persian speedwell (evaluation grade 0-5) (persian speedwell)	other results
CCOc1ccccc1-c1sc2cc(O)ccc2c1-c1c(O)c(C)nn(C)c1=O [3-097]	4 (Herbicidal rate of 70% or more and less than 90%)	4 (Herbicidal rate of 70% or more and less than 90%)	3 (Herbicidal rate of 40% or more and less than 70%)	–	–	–	–	–	–	–	–	–	–	–	–	F: southern crabgrass, herbicidal effect grade (southern crabgrass; [3]): 4 (Herbicidal rate of 70% or more and less than 90%); G: green foxtail, herbicidal effect grade (green foxtail; [3]): 5 (Herbicidal rate of 90% or more (almost completely withered)); H: barnyard grass, herbicidal effect grade (barnyard grass [2]; [3]): 2 (Herbicidal rate of 20% or more and less than 40%); I: wild oat, herbicidal effect grade (wild oat; [3]): 1 (Herbicidal rate of 5% or more and less than 20%); J: blackgrass, herbicidal effect grade (blackgrass; [3]): 0 (Herbicidal rate of 5% or less (almost no effect)); K: Italian ryegrass, herbicidal effect grade (Italian ryegrass; [3]): 0 (Herbicidal rate of 5% or less (almost no effect)); L: windgrass, herbicidal effect grade (windgrass; [3]): 2 (Herbicidal rate of 20% or more and less than 40%); M: velvetleaf, herbicidal effect grade (velvetleaf; [3]): 3 (Herbicidal rate of 40% or more and less than 70%); N: redroot pigweed, herbicidal effect grade (redroot pigweed; [3]): 4 (Herbicidal rate of 70% or more and less than 90%); O: lambsquarters, herbicidal effect grade (lambsquarters; [3]): 3 (Herbicidal rate of 40% or more and less than 70%); P: chickweed, herbicidal effect grade (chickweed; [3]): 3 (Herbicidal rate of 40% or more and less than 70%); R: persian speedwell, herbicidal effect grade (persian speedwell; [3]): 3 (Herbicidal rate of 40% or more and less than 70%)
CCCC(=O)Oc1c(C)nn(C)c(=O)c1-c1c(-c2ccc(OC(F)(F)F)cc2)sc2cc(Cl)ccc12 [3-150]	5 (Herbicidal rate of 90% or more (almost completely withered))	3 (Herbicidal rate of 40% or more and less than 70%)	2 (Herbicidal rate of 20% or more and less than 40%)	0 (Herbicidal rate of 5% or less (almost no effect))	0 (Herbicidal rate of 5% or less (almost no effect))	3 (Herbicidal rate of 40% or more and less than 70%)	0 (Herbicidal rate of 5% or less (almost no effect))	0 (Herbicidal rate of 5% or less (almost no effect))	0 (Herbicidal rate of 5% or less (almost no effect))	0 (Herbicidal rate of 5% or less (almost no effect))	2 (Herbicidal rate of 20% or more and less than 40%)	3 (Herbicidal rate of 40% or more and less than 70%)	4 (Herbicidal rate of 70% or more and less than 90%)	3 (Herbicidal rate of 40% or more and less than 70%)	5 (Herbicidal rate of 90% or more (almost completely withered))	–
C#CCOc1c(C)nn(C)c(=O)c1-c1c(-c2ccccc2OC)sc2cc(OC)ccc12 [3-154]	3 (Herbicidal rate of 40% or more and less than 70%)	2 (Herbicidal rate of 20% or more and less than 40%)	3 (Herbicidal rate of 40% or more and less than 70%)	0 (Herbicidal rate of 5% or less (almost no effect))	3 (Herbicidal rate of 40% or more and less than 70%)	3 (Herbicidal rate of 40% or more and less than 70%)	0 (Herbicidal rate of 5% or less (almost no effect))	0 (Herbicidal rate of 5% or less (almost no effect))	0 (Herbicidal rate of 5% or less (almost no effect))	0 (Herbicidal rate of 5% or less (almost no effect))	0 (Herbicidal rate of 5% or less (almost no effect))	4 (Herbicidal rate of 70% or more and less than 90%)	3 (Herbicidal rate of 40% or more and less than 70%)	5 (Herbicidal rate of 90% or more (almost completely withered))	3 (Herbicidal rate of 40% or more and less than 70%)	–
